Test results: BindingDB's records for doi:10.1016/s0968-0896(00)00026-2 (Alcon Research, 2000)
Where a name gives a salt, the structure may show the parent alone.

Target: Carbonic anhydrase 2 (Homo sapiens, UniProt P00918)
Assay: In vitro binding of inhibitor to hCA-II
Details: not given
Protocol: Inhibitor binding to CA II was determined using a fluorescence competition assay. Displacement of dansylamide and binding of the inhibitor was determined by measuring and comparing the average fluorescence intensities of the treated versus control reactions. Binding constants were estimated from a Dixon plot of the data (reciprocal of the average fluorescence intensity versus inhibitor concentration)

`COCCN1C(CN2CCOCC2)=Cc2cc(S(N)(=O)=O)sc2S1(=O)=O` [Compound 17h1] and `COCCCN1C(CN2CCOCC2)=Cc2cc(S(N)(=O)=O)sc2S1(=O)=O` [Compound 17i1] are within 1.5-fold of each other in Ki: 0.22 nM for the first, 0.25 nM for the second.

First: NS(=O)(=O)c1cc2c(s1)S(=O)(=O)N(c1ccc(N3CCOCC3)cc1)C(CN1CCOCC1)=C2 [Compound 17n1]
Second: COc1ccc(N2C(CN3CCOCC3)=Cc3cc(S(N)(=O)=O)sc3S2(=O)=O)cc1OC [Compound 17m1]
The Ki of the first is 1.5-fold higher: 0.12 nM for the first, 0.08 nM for the second.

Going from `C#CCNCC1=Cc2cc(S(N)(=O)=O)sc2S(=O)(=O)N1CCC` [1,1-dioxo-3-[(prop-2-yn-1-ylamino)methyl]-2-propyl-2H-1,7,2-thieno[3,2-e][1,2]thiazine-6-sulfonamide] to `C#CCNCC1=Cc2cc(S(N)(=O)=O)sc2S(=O)(=O)N1C(C)C` [Compound 17d8], the Ki rises from 0.1 nM to 0.47 nM (4.7-fold).

`CCCN1C(CN2CCOCC2)=Cc2cc(S(N)(=O)=O)sc2S1(=O)=O` [Compound 17c1] and `NS(=O)(=O)c1cc2c(s1)S(=O)(=O)N(CCCO)C(CN1CCOCC1)=C2` [Compound 17o1] are within 1.5-fold of each other in Ki: 0.27 nM for the first, 0.2 nM for the second.

Compared with `C=CCN1C(CN2CCOCC2)=Cc2cc(S(N)(=O)=O)sc2S1(=O)=O` [3-(morpholin-4-ylmethyl)-1,1-dioxo-2-(prop-2-en-1-yl)-2H-1,7,2-thieno[3,2-e][1,2]thiazine-6-sulfonamide], `NS(=O)(=O)c1cc2c(s1)S(=O)(=O)N(CC1CC1)C(CN1CCOCC1)=C2` [2-(cyclopropylmethyl)-3-(morpholin-4-ylmethyl)-1,1-dioxo-2H-1,7,2-thieno[3,2-e][1,2]thiazine-6-sulfonamide hydrochloride] is 1.9-fold higher in Ki: 0.16 nM for the first, 0.3 nM for the second. The first binds more tightly here.

`COCCN(CCOC)CC1=Cc2cc(S(N)(=O)=O)sc2S(=O)(=O)N1CCOC` [Compound 17h2] and `CCCN1C(CN(CCOC)CCOC)=Cc2cc(S(N)(=O)=O)sc2S1(=O)=O` [3-{[bis(2-methoxyethyl)amino]methyl}-1,1-dioxo-2-propyl-2H-1,7,2-thieno[3,2-e][1,2]thiazine-6-sulfonamide hydrochloride] are within 1.5-fold of each other in Ki: 0.21 nM for the first, 0.15 nM for the second.

Compared with `COCCCN1C(CNC2CC2)=Cc2cc(S(N)(=O)=O)sc2S1(=O)=O` [3-[(cyclopropylamino)methyl]-2-(3-methoxypropyl)-1,1-dioxo-2H-1,7,2-thieno[3,2-e][1,2]thiazine-6-sulfonamide hydrochloride], `COCCCN1C(Cn2ccnc2)=Cc2cc(S(N)(=O)=O)sc2S1(=O)=O` [Compound 17i10] is 2.2-fold lower in Ki: 0.26 nM for the first, 0.12 nM for the second.

`NS(=O)(=O)c1cc2c(s1)S(=O)(=O)N(C1CCCCC1)C(CN1CCOCC1)=C2` [Compound 17g1] and `CC(C)N1C(CN2CCOCC2)=Cc2cc(S(N)(=O)=O)sc2S1(=O)=O` [Compound 17d1] are within 1.5-fold of each other in Ki: 0.31 nM for the first, 0.33 nM for the second.

Going from `COc1ccc(CN2C(CN3CCOCC3)=Cc3cc(S(N)(=O)=O)sc3S2(=O)=O)cc1` [Compound 17j1] to `CN1C(CN2CCOCC2)=Cc2sc(S(N)(=O)=O)cc2S1(=O)=O` [Compound 25], the Ki rises from 0.11 nM to 0.21 nM (1.9-fold).

`C#CCNCC1=Cc2cc(S(N)(=O)=O)sc2S(=O)(=O)N1c1cccc(O)c1` [2-(3-hydroxyphenyl)-1,1-dioxo-3-[(prop-2-yn-1-ylamino)methyl]-2H-1,7,2-thieno[3,2-e][1,2]thiazine-6-sulfonamide hydrochloride] and `COc1cccc(N2C(CNCCO)=Cc3cc(S(N)(=O)=O)sc3S2(=O)=O)c1` [3-{[(2-hydroxyethyl)amino]methyl}-2-(3-methoxyphenyl)-1,1-dioxo-2H-1,7,2-thieno[3,2-e][1,2]thiazine-6-sulfonamide hydrochloride] are within 1.5-fold of each other in Ki: 0.16 nM for the first, 0.11 nM for the second.

Work on `CCN1C(CN(CCO)CCO)=Cc2cc(S(N)(=O)=O)sc2S1(=O)=O` [Compound 17b4] yielded a Ki of 0.33 nM.

Same assay, conditions: pH 7.4; 37 °C

`CC(=O)N1CCN(CCN2C=Cc3cc(S(N)(=O)=O)sc3S2(=O)=O)CC1` [Compound 5c] and `NS(=O)(=O)c1cc2c(s1)S(=O)(=O)N(CCN1CCOCC1)C=C2` [Compound 5b] are within 1.5-fold of each other in Ki: 0.25 nM for the first, 0.32 nM for the second.

Compared with `COCCCN(CCOC)CC1=Cc2cc(S(N)(=O)=O)sc2S(=O)(=O)N1C` [3-{[(2-methoxyethyl)(3-methoxypropyl)amino]methyl}-2-methyl-1,1-dioxo-2H-1,7,2-thieno[3,2-e][1,2]thiazine-6-sulfonamide hydrochloride], `CCN1C(CN(CCOC)CCOC)=Cc2cc(S(N)(=O)=O)sc2S1(=O)=O` [2-Ethyl-3-[[bis(2-methoxyethyl)amino]methyl]-2H-thieno-[3,2-e]-1,2-thiazine-6-sulfonamide 1,1-dioxide hydrochloride] is 2.6-fold higher in Ki: 0.08 nM for the first, 0.21 nM for the second. The first binds more tightly here.

Compared with `COc1cccc(N2C(CN3CCOCC3)=Cc3cc(S(N)(=O)=O)sc3S2(=O)=O)c1` [2-(3-Methoxyphenyl)-3-[(4-morpholinyl)methyl]-2H-thieno-[3,2-e]-1,2-thiazine-6-sulfonamide 1,1-dioxide], `CN1C(CN2CCOCC2)=Cc2cc(S(N)(=O)=O)sc2S1(=O)=O` [2-methyl-3-(morpholin-4-ylmethyl)-1,1-dioxo-2H-1,7,2-thieno[3,2-e][1,2]thiazine-6-sulfonamide hydrochloride] is 1.7-fold higher in Ki: 0.15 nM for the first, 0.26 nM for the second.

Going from `CCCNCCN1C=Cc2cc(S(N)(=O)=O)sc2S1(=O)=O` [2-[2-(Propylamino)ethyl]-2H-thieno[3,2-e]-1,2-thiazine-6-sulfonamide 1,1-dioxide hydrochloride] to `COCCN(CCOC)CCN1C=Cc2cc(S(N)(=O)=O)sc2S1(=O)=O` [2-{2-[bis(2-methoxyethyl)amino]ethyl}-1,1-dioxo-2H-1,7,2-thieno[3,2-e][1,2]thiazine-6-sulfonamide hydrochloride], the Ki falls from 0.52 nM to 0.34 nM (1.5-fold).

`COCCN(C)CC1=Cc2cc(S(N)(=O)=O)sc2S(=O)(=O)N1C` [3-[N-(2-Methoxyethyl)-N-methylamino]methyl]-2-methyl-2H-thieno[3,2-e]-1,2-thiazine-6-sulfonamide 1,1-dioxide] and `C=CCN(CCOC)CC1=Cc2cc(S(N)(=O)=O)sc2S(=O)(=O)N1C` [Compound 17a7] are within 1.5-fold of each other in Ki: 0.15 nM for the first, 0.1 nM for the second.

`CCN1C(CN2CCOCC2)=Cc2cc(S(N)(=O)=O)sc2S1(=O)=O` [2-Ethyl-3-[(4-morpholinyl)methyl]-2H-thieno[3,2-e]-1,2-thiazine-6-sulfonamide 1,1-dioxide hydrochloride] and `NS(=O)(=O)c1cc2c(s1)S(=O)(=O)N(C/C=C/CN1CCOCC1)C=C2` [2-[(2E)-4-(morpholin-4-yl)but-2-en-1-yl]-1,1-dioxo-2H-1,7,2-thieno[3,2-e][1,2]thiazine-6-sulfonamide hydrochloride] are within 1.5-fold of each other in Ki: 0.21 nM for the first, 0.24 nM for the second.
